Columns and labels:
Human primary T cells [1] = experiment: T cell activation: secreted IL-2; format: cell-based; conditions: 48 hours, fold over background normalized to Compound 141A; for IL-2 1 nM: 1 nM compound; for IL-2 10 nM: 10 nM compound; for IL-2 100 nM: 100 nM compound
Description: (§1) Human primary T cells were isolated from commercially available frozen peripheral blood mononuclear cells (HemaCare Corporation) or from fresh LeukoPaks (Research Blood Components). T cells were isolated through depletion of non-T cells using negative selection kit according to the manufacturer's protocol (Miltenyi Biotec, Human Pan T Cell Isolation Kit, 130-096-535). Isolated cells were cultured overnight at 37° C. with 5% CO2 and plated at 1×10^5 cells per well in XVivo-15 serum-free media (Lonza, 04-418Q) into 96 well plates coated with anti-CD3 (OKT3) antibody (ThermoFisher, 16-0037-85). To coat the plates for T cell capture, anti-CD3 antibody was diluted in PBS at 10 μg/mL and 100 μl added to each well. Plates were incubated at 4° C. overnight or at 37° C. for 2 hours and washed once with PBS before use. Serial dilutions of each compound were added in duplicates to the T cells to assess their effect on T cell activation. T cells treated with 5 μg/mL of CD28 antibody (ThermoFisher, 16-0289-85) or T cells stimulated by CD3 only were used as a control. Plates were incubated with the Cbl-b inhibitors for 48 hours at 37° C. with 5% CO2, and supernatants were subsequently analyzed for levels of the activation induced secreted cytokines IL-2 or IFN-y (BD Biosciences CBA Flex Beads, 558269, 558270). T cells were additionally stained with anti-CD69 antibody (Invitrogen, 12-0699-42 which labels a T cell activation associated membrane protein to and surface expression was measured by flow cytometry (ThermoFisher Attune NxT).
(§2) To control for natural inter-donor variability in T cell responses intrinsic to using primary human donor derived cells, secreted IL-2 and IFN-y measurements for each test compound were reported as the fold increase of the compound treated levels over background (antiCD3/CD28 treatment only) normalized to the values obtained for Compound 141A. Results for compound treatment-induced changes in CD69 levels are similarly reported as the fold increase due to compound treatment over anti-CD3 stimulated background only, normalized to values obtained for Compound 141A.
Normalized T cell IL-2 responses were sorted into ranges as follows: fold over background values between 1.41 and 1.8: range “X”, between 0.80 and 1.40: range “A”, values between 0.31 and 0.79: range “B” values between 0.10 and 0.30: range “C”, values between 0.01 and 0.09: range “D.”

[2] = target: Cbl-b (36-427 aa truncated form, N-terminus Avi-tag) (Homo sapiens (Human), UniProt Q13191); experiment: Cbl-b binding: TR-FRET displacement of BODIPY-FL probe
Cbl-b (36-427 aa truncated form, N-terminus Avi-tag), sequence (Q13191 36-427): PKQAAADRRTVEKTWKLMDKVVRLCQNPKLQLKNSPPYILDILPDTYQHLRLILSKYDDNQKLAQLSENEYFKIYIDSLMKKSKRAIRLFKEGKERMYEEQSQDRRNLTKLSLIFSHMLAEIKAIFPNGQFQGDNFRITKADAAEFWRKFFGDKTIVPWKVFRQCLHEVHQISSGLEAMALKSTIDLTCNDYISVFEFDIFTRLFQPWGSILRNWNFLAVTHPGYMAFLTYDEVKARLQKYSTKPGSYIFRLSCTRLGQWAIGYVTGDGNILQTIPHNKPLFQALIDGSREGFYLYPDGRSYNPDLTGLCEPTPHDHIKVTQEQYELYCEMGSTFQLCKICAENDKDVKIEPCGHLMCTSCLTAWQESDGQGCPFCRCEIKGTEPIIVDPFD
Outline: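 Avi-tagged Cbl-b 36-427 preincubated 1 h at RT with streptavidin-terbium in HEPES pH 7.5/NaCl/Triton/BSA/TCEP buffer, then 1 uM BODIPY-FL inhibitor probe plus compound added for 1 h. Probe displacement read by TR-FRET; IC50 fitted.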

Human primary T cells [3] = experiment: T cell activation: CD69 surface expression by flow cytometry; format: cell-based; conditions: fold over anti-CD3 stimulated background normalized to Compound 141A; for CD69 10 nM: 10 nM compound; for CD69 100 nM: 100 nM compound
Description: as §1, §2
Similarly, bins for normalized CD69 levels were sorted into ranges as follows: fold over background values between 1.11 and 1.6: range “X”, values between 0.81 and 1.10: range “A”; values between 0.61 and 0.80: range “B;” values between 0.30 and 0.60: range “C”.

Human primary T cells [4] = experiment: T cell activation: secreted IFN-y; format: cell-based; conditions: 48 hours, fold over background normalized to Compound 141A; for IFN-y 1 nM: 1 nM compound; for IFN-y 10 nM: 10 nM compound; for IFN-y 100 nM: 100 nM compound
Description: as §1, §2
Normalized T cell IFN-y responses were sorted into ranges as follows: fold over background between 1.10 and 2.00: range “A”, values between 0.31 and 1.00: range “B;” values between 0.10 and 0.30: range “C”, and values between 0.01 and 0.09: range “D.”

SMILES	IC50 [2] [nM]	IL-2 1 nM (Human primary T cells [1])	IL-2 10 nM (Human primary T cells [1])	IL-2 100 nM (Human primary T cells [1])	CD69 10 nM (Human primary T cells [3])	CD69 100 nM (Human primary T cells [3])	IFN-y 1 nM (Human primary T cells [4])	IFN-y 10 nM (Human primary T cells [4])	IFN-y 100 nM (Human primary T cells [4])
CCNc1cc(C2(Cc3nncn3C)COC2)cc(N2Cc3c(cc(CN4CCC(CSC)CC4)cc3C(F)(F)F)C2=O)n1 [Compound 106, 2-[6-(ethylamino)-4-{3-[(4-methyl-1,2,4-triazol-3-yl)methyl]oxetan-3-yl}pyridin-2-yl]-6-({4-[(methylsulfanyl)methyl]piperidin-1-yl}methyl)-4-(trifluoromethyl)-3H-isoindol-1-one]	100 to 1000	C (values between 0.10 and 0.30: range “C”)	C (values between 0.10 and 0.30: range “C”)	B (values between 0.31 and 0.79: range “B”)	C (values between 0.30 and 0.60: range “C”)	B (values between 0.61 and 0.80: range “B;”)	C (values between 0.10 and 0.30: range “C”)	C (values between 0.10 and 0.30: range “C”)	B (values between 0.31 and 1.00: range “B;”)
C[C@H]1CCCN(Cc2cc3c(c(C(F)(F)F)c2)CN(c2cc(C4(Cc5nncn5C)COC4)cc(NCCC#N)n2)C3=O)C1.O=CO [Compound 110, 3-[(4-{3-[(4-methyl-1,2,4-triazol-3-yl)methyl]oxetan-3-yl}-6-(6-{[(3S)-3-methylpiperidin-1-yl]methyl}-1-oxo-4-(trifluoromethyl)-3H-isoindol-2-yl)pyridin-2-yl)amino]propanenitrile; formic acid]	1 to 5	C (values between 0.10 and 0.30: range “C”)	B (values between 0.31 and 0.79: range “B”)	B (values between 0.31 and 0.79: range “B”)	B (values between 0.61 and 0.80: range “B;”)	A (values between 0.81 and 1.10: range “A”)	B (values between 0.31 and 1.00: range “B;”)	B (values between 0.31 and 1.00: range “B;”)	B (values between 0.31 and 1.00: range “B;”)
CCSc1cc(C2(c3nncn3C)CC(C)C2)cc(N2Cc3c(cc(CN4CCC[C@H](C)C4)cc3C(F)(F)F)C2=O)n1 (stereo partly drawn) [Compound 112, 2-[6-(ethylsulfanyl)-4-[(1r,3s)-3-methyl-1-(4-methyl-1,2,4-triazol-3-yl)cyclobutyl]pyridin-2-yl]-6-{[(3S)-3-methylpiperidin-1-yl]methyl}-4-(trifluoromethyl)-3H-isoindol-1-one]	20 to 100	C (values between 0.10 and 0.30: range “C”)	C (values between 0.10 and 0.30: range “C”)	B (values between 0.31 and 0.79: range “B”)	C (values between 0.30 and 0.60: range “C”)	B (values between 0.61 and 0.80: range “B;”)	C (values between 0.10 and 0.30: range “C”)	B (values between 0.31 and 1.00: range “B;”)	B (values between 0.31 and 1.00: range “B;”)
CCSc1cc(C2(c3nncn3C)CC(C)C2)cc(N2Cc3c(cc(CN4CCC[C@H](C)C4)cc3C(F)(F)F)C2=O)n1 (stereo partly drawn) [Compound 113, 2-[6-(ethylsulfanyl)-4-[(1s,3r)-3-methyl-1-(4-methyl-1,2,4-triazol-3-yl)cyclobutyl]pyridin-2-yl]-6-{[(3S)-3-methylpiperidin-1-yl]methyl}-4-(trifluoromethyl)-3H-isoindol-1-one]	20 to 100	C (values between 0.10 and 0.30: range “C”)	B (values between 0.31 and 0.79: range “B”)	B (values between 0.31 and 0.79: range “B”)	B (values between 0.61 and 0.80: range “B;”)	A (values between 0.81 and 1.10: range “A”)	C (values between 0.10 and 0.30: range “C”)	B (values between 0.31 and 1.00: range “B;”)	B (values between 0.31 and 1.00: range “B;”)

More lines, main results first:

IC50 [2] [nM]	SMILES	IL-2 1 nM (Human primary T cells [1])	IL-2 10 nM (Human primary T cells [1])	IL-2 100 nM (Human primary T cells [1])	CD69 10 nM (Human primary T cells [3])	CD69 100 nM (Human primary T cells [3])	IFN-y 1 nM (Human primary T cells [4])	IFN-y 10 nM (Human primary T cells [4])	IFN-y 100 nM (Human primary T cells [4])
5.01 to 20	C[C@H]1CCCN(Cc2cc3c(c(C(F)(F)F)c2)CN(c2cc(C4(Cc5nncn5C)COC4)cc(SCCO)n2)C3=O)C1 [Compound 102, 2-{6-[(2-hydroxyethyl)sulfanyl]-4-{3-[(4-methyl-1,2,4-triazol-3-yl)methyl]oxetan-3-yl}pyridin-2-yl}-6-{[(3S)-3-methylpiperidin-1-yl]methyl}-4-(trifluoromethyl)-3H-isoindol-1-one]	C (values between 0.10 and 0.30: range “C”)	C (values between 0.10 and 0.30: range “C”)	B (values between 0.31 and 0.79: range “B”)	C (values between 0.30 and 0.60: range “C”)	B (values between 0.61 and 0.80: range “B;”)	C (values between 0.10 and 0.30: range “C”)	C (values between 0.10 and 0.30: range “C”)	B (values between 0.31 and 1.00: range “B;”)
5.01 to 20	CSCCNc1cc(C2(Cc3nncn3C)COC2)cc(N2Cc3c(cc(CN4CCC[C@H](C)C4)cc3C(F)(F)F)C2=O)n1 [Compound 103, 2-(4-{3-[(4-methyl-1,2,4-triazol-3-yl)methyl]oxetan-3-yl}-6-{[2-(methylsulfanyl)ethyl]amino}pyridin-2-yl)-6-{[(3S)-3-methylpiperidin-1-yl]methyl}-4-(trifluoromethyl)-3H-isoindol-1-one]	C (values between 0.10 and 0.30: range “C”)	C (values between 0.10 and 0.30: range “C”)	B (values between 0.31 and 0.79: range “B”)	C (values between 0.30 and 0.60: range “C”)	B (values between 0.61 and 0.80: range “B;”)	C (values between 0.10 and 0.30: range “C”)	C (values between 0.10 and 0.30: range “C”)	B (values between 0.31 and 1.00: range “B;”)
5.01 to 20	CCSc1cc(C2(Cc3nncn3C)COC2)cc(N2Cc3c(cc(CN4CCC[C@H](C)C4)cc3C(F)(F)F)C2=O)n1 [Compound 107, 2-[6-(ethylsulfanyl)-4-{3-[(4-methyl-1,2,4-triazol-3-yl)methyl]oxetan-3-yl}pyridin-2-yl]-6-{[(3S)-3-methylpiperidin-1-yl]methyl}-4-(trifluoromethyl)-3H-isoindol-1-one]	B (values between 0.31 and 0.79: range “B”)	B (values between 0.31 and 0.79: range “B”)	A (between 0.80 and 1.40: range “A”)	A (values between 0.81 and 1.10: range “A”)	A (values between 0.81 and 1.10: range “A”)	B (values between 0.31 and 1.00: range “B;”)	B (values between 0.31 and 1.00: range “B;”)	B (values between 0.31 and 1.00: range “B;”)
5.01 to 20	CCNc1cc(C2(Cc3nncn3C)COC2)cc(N2Cc3c(cc(CN4CCC[C@H](CSC)C4)cc3C(F)(F)F)C2=O)n1 [Compound 111, 2-[6-(ethylamino)-4-{3-[(4-methyl-1,2,4-triazol-3-yl)methyl]oxetan-3-yl}pyridin-2-yl]-6-{[(3S)-3-[(methylsulfanyl)methyl]piperidin-1-yl]methyl}-4-(trifluoromethyl)-3H-isoindol-1-one]	C (values between 0.10 and 0.30: range “C”)	B (values between 0.31 and 0.79: range “B”)	B (values between 0.31 and 0.79: range “B”)	B (values between 0.61 and 0.80: range “B;”)	A (values between 0.81 and 1.10: range “A”)	B (values between 0.31 and 1.00: range “B;”)	B (values between 0.31 and 1.00: range “B;”)	B (values between 0.31 and 1.00: range “B;”)

Reference: patent US20250304563A1, “ACTIVATORS OF EFFECTOR T CELLS” (Orum Therapeutics, Inc., priority 2022, published 2025)
